Measured values: patent publication US6873914B2, “Methods and systems for analyzing complex biological systems” (Icoria, Inc., priority 2001, dated 2005)
“Also recorded” adds a separate entry of the source.

What was measured:
[1] = test system: Arabidopsis thaliana plants; experiment: SOA1 phenotypic analysis of herbicide-treated Arabidopsis plants; format: in vivo; conditions: for Symptom Class: Arabidopsis sprayed with herbicide, phenotypes of the classes pictured in FIG. 12; for leafCurling (Dev.) / leafTwisting (Dev.) / leafWidth (Dev.) / matureLeafAnthocyanins (Dev.) / matureLeafChlorosis (Dev.) / matureLeafNecrosis (Dev.) / newLeafAnthocyanins (Dev.) / newLeafChlorosis (Dev.) / newLeafNecrosis (Dev.) / pointedLeaves (Dev.): numeric value standardized to mock treated plants; for tMic (Dev.): score for time required to exhibit full range of symptoms at the MIC; for characteristic symptoms (morphological phenotype): in words
Arabidopsis thaliana [2] = experiment: MOA1 phenotypic profiling of Arabidopsis sprayed with unknown and commercial herbicides; format: in vivo; conditions: in words
Arabidopsis thaliana [3] = experiment: MOA1 gene expression profiling (22,000 gene array) of treated Arabidopsis; format: in vivo; conditions: for gene expression perturbations compared to the other treatments: MOA1, 1 hr; for No. of Lethal Genes Altered: regulated genes identified as essential for plant growth and development (internal database)
[4] = test system: Saccharomyces cerevisiae wild type strain BY4743; experiment: AF1 metabolite analysis (GC-MS, LC-MS) of yeast cells treated with antifungal drugs; format: cell-based
Magnaporthe grisea = format: cell-based
Arabidopsis thaliana [5] = experiment: MOA1 biochemical (metabolite) profiling by LC-MS and GC-MS of treated Arabidopsis; conditions: after one hour
PSI, PROTOX = experiment: PSI / PROTOX inhibition (unpublished data)

SMILES: O=C(O)COc1ccc(Cl)cc1Cl [2,4-D]
- Symptom Class [1]: 5
- leafCurling (Dev.) [1]: 1
- leafTwisting (Dev.) [1]: 2
- leafWidth (Dev.) [1]: −1
- matureLeafAnthocyanins (Dev.) [1]: 1
- matureLeafChlorosis (Dev.) [1]: 2
- matureLeafNecrosis (Dev.) [1]: 0
- newLeafAnthocyanins (Dev.) [1]: 0
- newLeafChlorosis (Dev.) [1]: 1
- newLeafNecrosis (Dev.) [1]: 0
- pointedLeaves (Dev.) [1]: 0
- tMic (Dev.) [1]: 2

SMILES: O=C(O)c1cc(Oc2ccc(C(F)(F)F)cc2Cl)ccc1[N+](=O)[O-] [Acifluorfen]
- characteristic symptoms (morphological phenotype) [1]: Necrotic leaf flecks

SMILES: Nc1nc[nH]n1 [Amitrole]
- characteristic symptoms (morphological phenotype) [1]: leaf bleaching and leaf enlargement
- phenotype / hierarchical cluster analysis of the eleven phenotypic characteristics (Arabidopsis thaliana [2]): exhibited chlorosis and not true bleaching

SMILES: COC(=O)NS(=O)(=O)c1ccc(N)cc1 [Asulam]
- gene expression perturbations compared to the other treatments (Arabidopsis thaliana [3]): fewest gene expression perturbations
- No. of Lethal Genes Altered (Arabidopsis thaliana [3]): 5

SMILES: CCNc1nc(Cl)nc(NC(C)C)n1 [Atrazine]
- characteristic symptoms (morphological phenotype) [1]: rapid and widespread leaf necrosis

SMILES: CC(C)N1C(=O)c2ccccc2NS1(=O)=O [Bentazon]
- characteristic symptoms (morphological phenotype) [1]: rapid and widespread leaf necrosis

SMILES: COC(=O)c1cc(Oc2ccc(Cl)cc2Cl)ccc1[N+](=O)[O-] [Bifenox]
- characteristic symptoms (morphological phenotype) [1]: Necrotic leaf flecks

SMILES: CCSC(=O)N(CC(C)C)CC(C)C [Butylate]
- phenotype / hierarchical cluster analysis of the eleven phenotypic characteristics (Arabidopsis thaliana [2]): neither showed a strong herbicidal phenotype

SMILES: CC(C)OC(=O)Nc1cccc(Cl)c1 [Chloropropham]
- phenotype / hierarchical cluster analysis of the eleven phenotypic characteristics (Arabidopsis thaliana [2]): neither showed a strong herbicidal phenotype

SMILES: COc1nc(C)nc(NC(=O)NS(=O)(=O)c2ccccc2Cl)n1 [Chlorsulfuron]
- characteristic symptoms (morphological phenotype) [1]: anthocyanin accumulation in the older leaves accompanied by chlorosis of the newly emerging leaves
- No. of Lethal Genes Altered (Arabidopsis thaliana [3]): 8

SMILES: c1cc[n+]2c(c1)-c1cccc[n+]1CC2 [Diquat]
- Symptom Class [1]: 7
- characteristic symptoms (morphological phenotype) [1]: rapid and widespread leaf necrosis
- leafCurling (Dev.) [1]: 2
- leafTwisting (Dev.) [1]: 0
- leafWidth (Dev.) [1]: −2
- matureLeafAnthocyanins (Dev.) [1]: 0
- matureLeafChlorosis (Dev.) [1]: 1
- matureLeafNecrosis (Dev.) [1]: 4
- newLeafAnthocyanins (Dev.) [1]: 0
- newLeafChlorosis (Dev.) [1]: 1
- newLeafNecrosis (Dev.) [1]: 4
- pointedLeaves (Dev.) [1]: 1
- tMic (Dev.) [1]: 2

SMILES: CN(C)C(=O)Nc1ccc(Cl)c(Cl)c1 [Diuron]
- Symptom Class [1]: 7
- characteristic symptoms (morphological phenotype) [1]: rapid and widespread leaf necrosis
- leafCurling (Dev.) [1]: 1
- leafTwisting (Dev.) [1]: 0
- leafWidth (Dev.) [1]: −2
- matureLeafAnthocyanins (Dev.) [1]: 0
- matureLeafChlorosis (Dev.) [1]: 2
- matureLeafNecrosis (Dev.) [1]: 4
- newLeafAnthocyanins (Dev.) [1]: 0
- newLeafChlorosis (Dev.) [1]: 2
- newLeafNecrosis (Dev.) [1]: 4
- pointedLeaves (Dev.) [1]: 1
- tMic (Dev.) [1]: 1

SMILES: OC(Cn1cncn1)(Cn1cncn1)c1ccc(F)cc1F [Fluconazole]
- Fold Change: abscisic acid ([4]; LC): 0
- Fold Change: adenosine ([4]; LC): 0

SMILES: CP(=O)(O)CCC(N)C(=O)O (centres unmarked) [Glufosinate]
- Symptom Class [1]: 3
- characteristic symptoms (morphological phenotype) [1]: Chlorosis and leaf curling
- leafCurling (Dev.) [1]: 2
- leafTwisting (Dev.) [1]: 1
- leafWidth (Dev.) [1]: −2
- matureLeafAnthocyanins (Dev.) [1]: 0
- matureLeafChlorosis (Dev.) [1]: 3
- matureLeafNecrosis (Dev.) [1]: 0
- newLeafAnthocyanins (Dev.) [1]: 0
- newLeafChlorosis (Dev.) [1]: 3
- newLeafNecrosis (Dev.) [1]: 0
- pointedLeaves (Dev.) [1]: 1
- tMic (Dev.) [1]: 1
- No. of Lethal Genes Altered (Arabidopsis thaliana [3]): 10

SMILES: O=C(O)CNCP(=O)(O)O [Glyphosate]
- Symptom Class [1]: 4
- characteristic symptoms (morphological phenotype) [1]: anthocyanin accumulation in the older leaves accompanied by chlorosis of the newly emerging leaves
- leafCurling (Dev.) [1]: 0
- leafTwisting (Dev.) [1]: 0
- leafWidth (Dev.) [1]: 0
- matureLeafAnthocyanins (Dev.) [1]: 3
- matureLeafChlorosis (Dev.) [1]: 1
- matureLeafNecrosis (Dev.) [1]: 3
- newLeafAnthocyanins (Dev.) [1]: 1
- newLeafChlorosis (Dev.) [1]: 2
- newLeafNecrosis (Dev.) [1]: 0
- pointedLeaves (Dev.) [1]: 1
- tMic (Dev.) [1]: 2
- M. grisea growth with nitrate, nitrite, or glutamate as the sole nitrogen source (Magnaporthe grisea): inhibited growth
- Growth of M. grisea with ammonium or glutamine as nitrogen source, Tier 4 (Magnaporthe grisea; 250 μg/ml): Little growth defect
- M. grisea growth results for Tiers 3 and 4 (Magnaporthe grisea; 250 μg/ml): nearly identical as compared to Unknown 4
- M. grisea growth inhibition, effect of aromatic amino acids in the media (Magnaporthe grisea; 1.0 mg/ml): remediated by inclusion of aromatic amino acids
- tyrosine (downstream metabolite) relative to the control (Arabidopsis thaliana [5]): decreased

SMILES: CC(C)C1(C)N=C(c2ncccc2C(=O)O)NC1=O (centres unmarked) [Imazapyr]
- characteristic symptoms (morphological phenotype) [1]: anthocyanin accumulation in the older leaves accompanied by chlorosis of the newly emerging leaves

SMILES: CCc1cnc(C2=NC(C)(C(C)C)C(=O)N2)c(C(=O)O)c1 (centres unmarked) [Imazethapyr]
- characteristic symptoms (morphological phenotype) [1]: anthocyanin accumulation in the older leaves accompanied by chlorosis of the newly emerging leaves

SMILES: CS(=O)(=O)c1cc(C(F)(F)F)ccc1C(=O)c1cnoc1C1CC1 [Isoxaflutole]
- No. of Lethal Genes Altered (Arabidopsis thaliana [3]): 15
- M. grisea growth in minimal media (Magnaporthe grisea; concentration insufficient to inhibit growth): unaffected
- M. grisea growth in minimal plus tyrosine (sole nitrogen source) media (Magnaporthe grisea; concentration insufficient to inhibit growth (sub-inhibitory)): inhibited
- tyrosine and phenylalanine relative to the control (Arabidopsis thaliana [5]): up-regulated; also recorded: began to accumulate

SMILES: CCc1cccc(C)c1N(C(=O)CCl)C(C)COC (centres unmarked) [Metolachlor]
- PSI or PROTOX inhibitor (PSI, PROTOX): neither a PSI nor a PROTOX inhibitor

SMILES: CSc1nnc(C(C)(C)C)c(=O)n1N [Metribuzin]
- characteristic symptoms (morphological phenotype) [1]: rapid and widespread leaf necrosis

SMILES: O=C(O)c1ccccc1C(=O)Nc1cccc2ccccc12 [Naptalam]
- gene expression perturbations compared to the other treatments (Arabidopsis thaliana [3]): fewest gene expression perturbations
- No. of Lethal Genes Altered (Arabidopsis thaliana [3]): 3

SMILES: C[n+]1ccc(-c2cc[n+](C)cc2)cc1 [Paraquat]
- Symptom Class [1]: 7
- characteristic symptoms (morphological phenotype) [1]: rapid and widespread leaf necrosis

SMILES: CC[C@@H]([C@H](C)O)n1ncn(-c2ccc(N3CCN(c4ccc(OC[C@@H]5CO[C@@](Cn6cncn6)(c6ccc(F)cc6F)C5)cc4)CC3)cc2)c1=O [Posaconazoie]
- Fold Change ([4]; metabolite luteolin, platform LC): 0

SMILES: CC[C@@H]([C@H](C)O)n1ncn(-c2ccc(N3CCN(c4ccc(OC[C@@H]5CO[C@@](Cn6cncn6)(c6ccc(F)cc6F)C5)cc4)CC3)cc2)c1=O [Posaconazole]
- Fold Change ([4]; metabolite anthranilic acid, platform nLC): 0
- Fold Change ([4]; metabolite anthranilic acid, platform pLC): 0
- Fold Change ([4]; metabolite biotin, platform LC): 0

SMILES: CC[C@@H]([C@H](C)O)n1ncn(-c2ccc(N3CCN(c4ccc(OC[C@@H]5CO[C@@](Cn6cncn6)(c6ccc(F)cc6F)C5)cc4)CC3)cc2)c1=O [Posaconazote]
- Fold Change, porphobilinogen ([4]; detected metabolite, platform nLC, p-Value 1): 0
